{"source": "patent US11339161B2", "about": "“Triazolo pyridines as modulators of gamma-secretase” (Boehringer Ingelheim International GmbH, priority 2017, dated 2022)", "key": {"[1]": {"tested_on": "Aβ total", "experiment": "Aβ total levels in H4 neuroglioma cells stably expressing human APP695 (MSD electrochemiluminescence)", "format": "cell-based", "details": "selectivity ratio vs. Aβtotal, Table 4a", "method": "(§1) Cells were plated out to near confluency. The compounds to be tested were received as 10 mM stocks in 100% DMSO. A dilution series was initially generated in 100% DMSO and then diluted 200-fold in cell culture media such that the tested concentration range was 30 μM to 0.1 nM and the final DMSO concentration was 0.5%. The diluted compounds were incubated with the cells for 22 hours in an incubator at 37° C. and 5% CO2. Aβ42 levels were measured post-incubation from the supernatant of the cells using an Aβ42 specific electrochemiluminescence assay provided by Meso Scale Discovery (Catalog #L21CA-1). The measurement of Aβ42 levels were performed according to the manufacturer's protocol.\nAβ total levels were likewise determined using a specific electrochemiluminescence assay provided by Meso Scale Discovery (Catalog #L21ZA-1) according to the manufacturer's protocol."}, "[2]": {"tested_on": "Aβ42 production", "experiment": "Inhibition of Aβ42 production in H4 neuroglioma cells stably expressing human APP695 (MSD electrochemiluminescence)", "format": "cell-based", "details": "H4 neuroglioma cells expressing human APP695, 22 hours incubation; Table 4a", "method": "as §1"}, "[3]": {"target": "LYN B (Homo sapiens, UniProt P07948)", "sequence (P07948 1-491 isoform P07948-2)": "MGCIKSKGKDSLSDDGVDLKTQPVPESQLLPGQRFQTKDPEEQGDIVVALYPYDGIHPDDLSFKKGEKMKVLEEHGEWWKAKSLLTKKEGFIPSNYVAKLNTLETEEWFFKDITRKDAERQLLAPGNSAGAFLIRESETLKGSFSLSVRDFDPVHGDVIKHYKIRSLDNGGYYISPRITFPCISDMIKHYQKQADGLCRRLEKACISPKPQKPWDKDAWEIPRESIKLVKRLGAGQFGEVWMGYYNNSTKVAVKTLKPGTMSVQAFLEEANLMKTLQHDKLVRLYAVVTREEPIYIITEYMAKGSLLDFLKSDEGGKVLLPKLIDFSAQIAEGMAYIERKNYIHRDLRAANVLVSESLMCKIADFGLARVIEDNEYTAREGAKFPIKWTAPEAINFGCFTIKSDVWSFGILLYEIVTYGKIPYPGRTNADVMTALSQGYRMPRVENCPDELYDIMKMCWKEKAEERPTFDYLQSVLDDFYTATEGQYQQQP", "details": "substrate Tyr 02, ATP bin 25 μM (ATP Km app 25 μM), read-out: IC50 of known inhibitor (inhibitor validation); cited from earlier work"}, "[4]": {"target": "CSF1R (FMS) (Homo sapiens, UniProt P07333)", "sequence (P07333 20-972)": "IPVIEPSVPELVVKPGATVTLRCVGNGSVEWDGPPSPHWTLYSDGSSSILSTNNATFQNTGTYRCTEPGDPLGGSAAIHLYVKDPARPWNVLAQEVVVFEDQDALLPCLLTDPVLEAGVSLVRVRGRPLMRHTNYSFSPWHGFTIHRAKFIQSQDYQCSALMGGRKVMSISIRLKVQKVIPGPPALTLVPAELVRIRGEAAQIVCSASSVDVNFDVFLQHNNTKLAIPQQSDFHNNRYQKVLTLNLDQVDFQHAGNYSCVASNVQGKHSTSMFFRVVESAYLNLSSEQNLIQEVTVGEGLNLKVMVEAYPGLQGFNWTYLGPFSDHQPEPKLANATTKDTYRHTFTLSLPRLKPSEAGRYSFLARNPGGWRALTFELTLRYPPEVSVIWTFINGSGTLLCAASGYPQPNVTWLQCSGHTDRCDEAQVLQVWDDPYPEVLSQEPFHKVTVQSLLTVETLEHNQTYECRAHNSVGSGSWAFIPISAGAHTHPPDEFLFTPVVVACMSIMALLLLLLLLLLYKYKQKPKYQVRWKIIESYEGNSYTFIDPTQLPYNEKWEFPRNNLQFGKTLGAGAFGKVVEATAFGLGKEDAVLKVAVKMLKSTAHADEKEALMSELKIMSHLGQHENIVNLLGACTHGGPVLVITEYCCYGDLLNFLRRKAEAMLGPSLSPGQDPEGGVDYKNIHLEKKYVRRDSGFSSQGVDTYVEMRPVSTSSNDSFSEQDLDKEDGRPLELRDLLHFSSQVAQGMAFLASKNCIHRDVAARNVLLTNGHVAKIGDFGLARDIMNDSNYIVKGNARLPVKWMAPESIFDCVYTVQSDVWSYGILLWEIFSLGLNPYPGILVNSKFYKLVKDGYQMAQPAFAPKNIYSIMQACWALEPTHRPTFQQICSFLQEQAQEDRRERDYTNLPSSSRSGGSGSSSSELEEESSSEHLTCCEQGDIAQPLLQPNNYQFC", "details": "substrate Tyr 01, ATP bin 500 μM (ATP Km app 450 μM), read-out: IC50 of known inhibitor (inhibitor validation); cited from earlier work"}, "[5]": {"target": "ABL1 (Homo sapiens, UniProt P00519)", "sequence (P00519 whole entry)": "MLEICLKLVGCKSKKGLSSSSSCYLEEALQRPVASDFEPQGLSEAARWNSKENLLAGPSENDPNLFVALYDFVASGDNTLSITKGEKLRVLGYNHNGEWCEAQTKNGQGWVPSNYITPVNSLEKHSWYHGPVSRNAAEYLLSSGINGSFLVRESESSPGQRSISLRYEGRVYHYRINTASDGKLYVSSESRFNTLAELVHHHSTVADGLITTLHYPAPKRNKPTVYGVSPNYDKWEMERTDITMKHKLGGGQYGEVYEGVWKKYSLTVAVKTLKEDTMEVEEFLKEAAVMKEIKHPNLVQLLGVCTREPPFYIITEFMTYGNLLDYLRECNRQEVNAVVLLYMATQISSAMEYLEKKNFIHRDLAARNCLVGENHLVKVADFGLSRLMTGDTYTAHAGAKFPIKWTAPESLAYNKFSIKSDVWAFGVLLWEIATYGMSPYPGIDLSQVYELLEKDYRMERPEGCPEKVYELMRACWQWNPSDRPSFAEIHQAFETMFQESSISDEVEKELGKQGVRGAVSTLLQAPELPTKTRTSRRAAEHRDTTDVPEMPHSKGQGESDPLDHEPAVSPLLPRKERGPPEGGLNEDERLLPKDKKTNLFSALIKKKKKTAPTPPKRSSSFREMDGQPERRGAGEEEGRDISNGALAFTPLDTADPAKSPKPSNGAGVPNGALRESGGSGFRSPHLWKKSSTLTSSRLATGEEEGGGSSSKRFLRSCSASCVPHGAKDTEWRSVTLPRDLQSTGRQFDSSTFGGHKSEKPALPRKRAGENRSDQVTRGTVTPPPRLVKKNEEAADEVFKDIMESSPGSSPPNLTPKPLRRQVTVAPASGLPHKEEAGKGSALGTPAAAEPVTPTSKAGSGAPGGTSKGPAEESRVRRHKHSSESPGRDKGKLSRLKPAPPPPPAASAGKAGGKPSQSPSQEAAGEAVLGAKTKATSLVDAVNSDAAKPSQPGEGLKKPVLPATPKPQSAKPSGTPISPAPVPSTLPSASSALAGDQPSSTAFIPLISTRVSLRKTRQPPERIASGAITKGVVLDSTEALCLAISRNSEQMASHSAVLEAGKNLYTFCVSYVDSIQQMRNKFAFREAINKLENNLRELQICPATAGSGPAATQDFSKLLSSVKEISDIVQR", "details": "Z'-Lyte substrate Tyr 02, ATP bin 10 μM (ATP Km app 12 μM), read-out: IC50 of known inhibitor (inhibitor validation); cited from earlier work"}}}
{"smiles": "CCn1ncc2c1CCC(Nc1nc3c(-c4cccnc4C)cccn3n1)C2", "note": "(stereo not drawn) [Example 65, (1-Ethyl-4,5,6,7-tetrahydro-1H-indazol-5-yl)-[8-(2-methyl-pyridin-3-yl)-[1,2,4]triazolo[1,5-a]pyridine-2-yl]-amine]", "values": [{"measurement": "Ratio AβTotal IC50/Aβ42 IC50", "setting": "[1]", "value": 44}, {"measurement": "IC50", "setting": "[2]", "value": 680, "unit": "nM"}]}
{"smiles": "CCn1ncc2c1CCC(Nc1nc3c(-c4cncc(C)c4)cccn3n1)C2", "note": "(stereo not drawn) [Example 66, (1-Ethyl-4,5,6,7-tetrahydro-1H-indazol-5-yl)-[8-(5-methyl-pyridin-3-yl)-[1,2,4]triazolo[1,5-a]pyridine-2-yl]-amine]", "values": [{"measurement": "Ratio AβTotal IC50/Aβ42 IC50", "setting": "[1]", "value": 154}, {"measurement": "IC50", "setting": "[2]", "value": 200, "unit": "nM"}]}
{"smiles": "CCc1nnc2n1CCC(Nc1nc3c(-c4ccc(F)cc4C)cccn3n1)C2", "note": "(stereo not drawn) [Example 53, (3-Ethyl-5,6,7,8-tetrahydro-[1,2,4]triazolo[4,3-a]pyridine-7-yl)-[8-(4-fluoro-2-methyl-phenyl)-[1,2,4]triazolo[1,5-a]pyridine-2-yl]-amine]", "values": [{"measurement": "Ratio AβTotal IC50/Aβ42 IC50", "setting": "[1]", "value": 1}, {"measurement": "IC50", "setting": "[2]", "value": 1390, "unit": "nM"}]}
{"smiles": "COc1cc2ncnc(Nc3cccc(Cl)c3)c2cc1OC", "note": "[Tyrphostin AG1478]", "values": [{"measurement": "IC50", "setting": "[3]", "value": 242, "unit": "nM"}, {"measurement": "IC50", "setting": "[4]", "value": 4420, "unit": "nM"}, {"measurement": "IC50", "setting": "[5]", "value": 421, "unit": "nM"}]}
{"smiles": "CCn1ncc2c1CCC(Nc1nc3c(-c4cc(F)c(F)c(F)c4)cccn3n1)C2", "note": "(stereo not drawn) [Example 62, (1-Ethyl-4,5,6,7-tetrahydro-1H-indazol-5-yl)-[8-(3,4,5-trifluoro-phenyl)-[1,2,4]triazolo[1,5-a]pyridine-2-yl]-amine]", "values": [{"measurement": "Ratio AβTotal IC50/Aβ42 IC50", "setting": "[1]", "value": 128}, {"measurement": "IC50", "setting": "[2]", "value": 30, "unit": "nM"}]}
{"smiles": "CCn1ncc2c1CCC(Nc1nc3c(-c4ccc(Cl)cc4)cccn3n1)C2", "note": "(stereo not drawn) [Example 60, [8-(4-Chloro-phenyl)-[1,2,4]triazolo[1,5-a]pyridine-2-yl]-(1-ethyl-4,5,6,7-tetrahydro-1H-indazol-5-yl)-amine]", "values": [{"measurement": "Ratio AβTotal IC50/Aβ42 IC50", "setting": "[1]", "value": 113}, {"measurement": "IC50", "setting": "[2]", "value": 60, "unit": "nM"}]}
{"smiles": "CCc1nnn2c1CCC(Nc1nc3c(-c4ccc(F)cc4C)cccn3n1)C2", "note": "(stereo not drawn) [Example 52, (3-Ethyl-4,5,6,7-tetrahydro-[1,2,3]triazolo[1,5-a]pyridine-6-yl)-[8-(4-fluoro-2-methyl-phenyl)-[1,2,4]triazolo[1,5-a]pyridine-2-yl]-amine]", "values": [{"measurement": "Ratio AβTotal IC50/Aβ42 IC50", "setting": "[1]", "value": 2}, {"measurement": "IC50", "setting": "[2]", "value": 740, "unit": "nM"}]}
{"smiles": "Cc1cc(F)ccc1-c1cccn2nc(NC3CCc4[nH]ncc4C3)nc12", "note": "(stereo not drawn) [Example 41, [8-(4-Fluoro-2-methyl-phenyl)-[1,2,4]triazolo[1,5-a]pyridine-2-yl]-(4,5,6,7-tetrahydro-1H-indazol-5-yl)-amine]", "values": [{"measurement": "Ratio AβTotal IC50/Aβ42 IC50", "setting": "[1]", "value": 1}, {"measurement": "IC50", "setting": "[2]", "value": 4570, "unit": "nM"}]}
{"smiles": "CCn1ncc2c1CCC(Nc1nc3c(-c4ccc(F)c(Cl)c4)cccn3n1)C2", "note": "(stereo not drawn) [Example 61, [8-(3-Chloro-4-fluoro-phenyl)-[1,2,4]triazolo[1,5-a]pyridine-2-yl]-(1-ethyl-4,5,6,7-tetrahydro-1H-indazol-5-yl)-amine]", "values": [{"measurement": "Ratio AβTotal IC50/Aβ42 IC50", "setting": "[1]", "value": 152}, {"measurement": "IC50", "setting": "[2]", "value": 20, "unit": "nM"}]}
{"smiles": "CCn1ncc2c1CCC(Nc1nc3c(-c4ccc(N(C)C)nc4)cccn3n1)C2", "note": "(stereo not drawn) [Example 72, [8-(6-Dimethylamino-pyridin-3-yl)-[1,2,4]triazolo[1,5-a]pyridine-2-yl]-(1-ethyl-4,5,6,7-tetrahydro-1H-indazol-5-yl)-amine]", "values": [{"measurement": "Ratio AβTotal IC50/Aβ42 IC50", "setting": "[1]", "value": 538}, {"measurement": "IC50", "setting": "[2]", "value": 50, "unit": "nM"}]}
{"smiles": "CCn1ncc2c1CCC(Nc1nc3c(-c4ccccc4Cl)cccn3n1)C2", "note": "(stereo not drawn) [Example 58, [8-(2-Chloro-phenyl)-[1,2,4]triazolo[1,5-a]pyridine-2-yl]-(1-ethyl-4,5,6,7-tetrahydro-1H-indazol-5-yl)-amine]", "values": [{"measurement": "Ratio AβTotal IC50/Aβ42 IC50", "setting": "[1]", "value": 34}, {"measurement": "IC50", "setting": "[2]", "value": 60, "unit": "nM"}]}
{"smiles": "CCOC1Cc2c(cnn2CC)CC1Nc1nc2c(-c3cc(F)c(F)c(F)c3)cccn2n1", "note": "(stereo not drawn) [Example 50, (6-Ethoxy-1-ethyl-4,5,6,7-tetrahydro-1H-indazol-5-yl)-[8-(3,4,5-trifluoro-phenyl)-[1,2,4]triazolo[1,5-a]pyridine-2-yl]-amine]", "values": [{"measurement": "Ratio AβTotal IC50/Aβ42 IC50", "setting": "[1]", "value": 1}, {"measurement": "IC50", "setting": "[2]", "value": 21700, "unit": "nM"}]}
{"smiles": "CCn1ncc2c1CCC(Nc1nc3c(-c4cnccc4C)cccn3n1)C2", "note": "(stereo not drawn) [Example 64, (1-Ethyl-4,5,6,7-tetrahydro-1H-indazol-5-yl)-[8-(4-methyl-pyridin-3-yl)-[1,2,4]triazolo[1,5-a]pyridine-2-yl]-amine]", "values": [{"measurement": "Ratio AβTotal IC50/Aβ42 IC50", "setting": "[1]", "value": 41}, {"measurement": "IC50", "setting": "[2]", "value": 730, "unit": "nM"}]}
